From PubChem BioAssay (NCI)
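Growth conditions: 96-well plates. Treatment: test compound, 48 hours, 5 concentrations. Analysis: linear interpolation between bracketing concentrations; unreached endpoints set to highest concentration. Abbreviation: GI50, concentration required for 50% inhibition of growth. TGI: total growth inhibition.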

Experiments:
Assay in all cases: NCI anticancer screen, dose series, 48 h
CAKI-1 renal = tested on: CAKI-1 renal
HCT-116 colon = tested on: HCT-116 colon
HT29 colon = tested on: HT29 colon
K-562 leukemia = tested on: K-562 leukemia
LOX IMVI melanoma = tested on: LOX IMVI melanoma
M14 melanoma = tested on: M14 melanoma
NCI-H23 lung = tested on: NCI-H23 lung
OVCAR-4 ovarian = tested on: OVCAR-4 ovarian
SK-MEL-5 melanoma = tested on: SK-MEL-5 melanoma
UACC-62 melanoma = tested on: UACC-62 melanoma

Row | SMILES | TGI (CAKI-1 renal) [µM] | TGI (HCT-116 colon) [µM] | TGI (HT29 colon) [µM] | TGI (K-562 leukemia) [µM] | TGI (LOX IMVI melanoma) [µM] | TGI (M14 melanoma) [µM] | TGI (NCI-H23 lung) [µM] | TGI (OVCAR-4 ovarian) [µM] | TGI (SK-MEL-5 melanoma) [µM] | TGI (UACC-62 melanoma) [µM] | GI50 (CAKI-1 renal) [µM] | GI50 (HCT-116 colon) [µM] | GI50 (HT29 colon) [µM] | GI50 (K-562 leukemia) [µM] | GI50 (LOX IMVI melanoma) [µM] | GI50 (M14 melanoma) [µM] | GI50 (NCI-H23 lung) [µM] | GI50 (OVCAR-4 ovarian) [µM] | GI50 (SK-MEL-5 melanoma) [µM] | GI50 (UACC-62 melanoma) [µM]
1 | CC1C=CC(=O)C(n2cc(F)c(=O)[nH]c2=O)O1 (stereo not drawn) | 24.2 | 29.1 | 32.5 | 79.8 | 33.6 | 36.7 | 40.7 | 34.3 | 35.8 | 31.7 | – | – | – | – | – | – | – | – | – | –
2 | CCn1cnc2c(Nc3cccc(Cl)c3)nc(N[C@@H]3CCCC[C@@H]3N)nc21 | 10.1 | 2.87 | 5.87 | 4.18 | 2.57 | 2.98 | 3.59 | 5.43 | 3.11 | 3.59 | 2.6 | 1.12 | 1.91 | 1.51 | 1.24 | 1.44 | 1.38 | 1.68 | 1.68 | 1.49
3 | CC12CCC[C@@](C)(C(=O)OC3OC(CO)C(O)C(O)C3O)[C@H]1CCC13CC4CC(OC4(CO)[C@H]1O)[C@@H]23 (stereo partly drawn) | > 100 | > 100 | > 100 | > 100 | – | > 100 | > 100 | > 100 | > 100 | > 100 | – | – | – | – | – | – | – | – | – | –
4 | CCCCCCCC/C=C\CCCCCCCC(=O)NCCN(CCN)C(=O)CCCCCCC/C=C\CCCCCCCC | > 100 | > 100 | > 100 | > 100 | > 100 | > 100 | > 100 | > 100 | > 100 | > 100 | – | – | – | – | – | – | – | – | – | –
5 | COC1=CC(c2ccc[nH]2)=N/C1=C\c1[nH]c(C)c(C(=O)CCCCC(=O)Nc2ccccc2)c1C | 11.9 | 3 | 2.52 | 2.74 | 2.34 | 4.51 | 4.8 | 3.96 | 11.6 | 24.5 | 4.75 | 1.64 | 0.693 | 1.43 | 1.13 | 2.01 | 1.87 | 1.56 | 4.22 | 8.71
6 | O=C(Nc1nc2ncn(CC(COc3ccccc3)OC(=O)c3ccccc3)c2c(=O)[nH]1)c1ccccc1 (stereo not drawn) | > 100 | > 100 | > 100 | > 100 | > 100 | > 100 | – | > 100 | > 100 | > 100 | – | – | – | – | – | – | – | – | – | –
7 | CC1=C(C(=O)Nc2ccc(Cl)c(Cl)c2)C(c2ccco2)C(C(=O)Nc2ccc(Cl)c(Cl)c2)=C(C)N1 | 27.8 | 21.5 | 29.9 | 29 | – | 18.4 | 35.2 | 24.6 | 26.9 | 26 | – | – | – | – | – | – | – | – | – | –
8 | CCOC(=O)c1sc(Nc2ccc(Cl)cc2)nc1C | 6.51 | – | 4.09 | 9.07 | 2.86 | 3.32 | 3.56 | 19 | 2.76 | 2.71 | 2.09 | – | 2.05 | 2.57 | 1.49 | 1.56 | 1.5 | 2.04 | 1.44 | 1.17
9 | COc1ccc(-c2ccc(C3CC(c4ccc(Cl)cc4)=NN3)o2)c([N+](=O)[O-])c1 (stereo not drawn) | – | > 100 | > 100 | > 100 | > 100 | > 100 | > 100 | > 100 | > 100 | > 100 | – | > 100 | > 100 | > 100 | > 100 | > 100 | > 100 | > 100 | > 100 | 78.4
10 | CC(=O)O[C@H]1C(=O)[C@@]2(C)C(C(OC(=O)c3ccccc3)[C@]3(O)CC(OC(=O)C(O)C(NC(=O)c4ccc(C)cc4)c4ccccc4)C(C)=C1C3(C)C)[C@]1(OC(C)=O)CO[C@@H]1C[C@@H]2O (stereo partly drawn) | 11.1 | 0.411 | – | 5.77 | 7.77 | – | > 25 | > 25 | 16.8 | 7.44 | – | – | – | – | – | – | – | – | – | –
11 | Nc1ccc(/C=N/Nc2ccnc3c(N)cccc23)c2cccnc12 | – | 1.85 | 3.47 | – | – | 3.49 | – | 3.35 | 3.19 | 3.37 | – | 0.401 | 1.92 | – | – | 1.87 | – | 1.54 | 1.78 | 1.73
12 | N#CCCN(c1ccc(-c2nnc(NC(=O)CNNC(=O)CC(=O)Nc3ccccc3)s2)cc1)S(=O)(=O)c1ccccc1 | > 100 | > 100 | > 100 | > 100 | > 100 | – | > 100 | > 100 | > 100 | > 100 | – | – | – | – | – | – | – | – | – | –
13 | O=C(NO)C12C3C4C1C1C2C3C41C(=O)NO (stereo not drawn) | > 100 | > 100 | > 100 | > 100 | > 100 | > 100 | – | – | > 100 | > 100 | – | – | – | – | – | – | – | – | – | –
14 | COc1ccc([C@H]2CC(=O)NCCCCN2)cc1 | > 100 | > 100 | > 100 | > 100 | – | > 100 | > 100 | > 100 | > 100 | > 100 | – | – | – | – | – | – | – | – | – | –
15 | O=C1OC(O)C(Oc2ccc(Cl)cc2)=C1Cl (stereo not drawn) | > 100 | > 100 | > 100 | > 100 | > 100 | > 100 | > 100 | > 100 | – | > 100 | – | – | – | – | – | – | – | – | – | –
16 | Cc1[nH]c(=O)[nH]c(=O)c1CO | > 100 | > 100 | > 100 | > 100 | > 100 | > 100 | > 100 | – | > 100 | > 100 | > 100 | > 100 | > 100 | > 100 | > 100 | > 100 | > 100 | – | > 100 | > 100
17 | Cc1cc(O)cc2c1O[C@@]1(C)CCC3[C@@]4(C)CC[C@H](O)C(C)(C)C4CC[C@@]3(C)[C@H]1C2 (stereo partly drawn) | 20.6 | 16.1 | 28.2 | 6.56 | 20.6 | 24.3 | 29.2 | – | 19 | 21.9 | – | – | – | – | – | – | – | – | – | –
18 | COC(=O)C1=C(C(=O)OC)C23C=C(C)C1C2=C(C)C1(CC1)[C@@](C)(O)C3=O (stereo partly drawn) | – | 11.5 | 16.9 | > 100 | 2.89 | 1.46 | 0.851 | 6.43 | 0.314 | 0.792 | – | 0.37 | 0.337 | 6.07 | 0.358 | 0.316 | 0.17 | 0.484 | 0.164 | 0.259
